Experimental data from patent US9107411B2, “Indolecarboxamides and benzimidazolecarboxamides as insecticides and acaricides” (BAYER INTELLECTUAL PROPERTY GMBH, priority 2011, dated 2015).

Tests used:
adult Musca domestica = test: Musca domestica test (MUSCDO); type: in vivo; conditions: application rate 100 ppm; treated sponge; after 2 days
Experimental: (§1) Musca domestica Test (MUSCDO) Solvent: dimethyl sulphoxide To prepare an appropriate active ingredient formulation, 10 mg of active ingredient are mixed with 0.5 ml of dimethyl sulphoxide and the concentrate is diluted with water to the desired concentration. Vessels containing a sponge treated with the active ingredient formulation of the desired concentration are populated with adult Musca domestica. After 2 days, the kill in % is determined 100% means that all of the flies have been killed; 0% means that none of the flies have been killed.

Boophilus microplus = Boophilus microplus test (BOOPMI injection); type: in vivo; conditions: application rate 20 μg/animal; injected into the abdomen; after 7 days
Experimental: Boophilus microplus Test (BOOPMI Injection) Solvent: dimethyl sulphoxide To prepare an appropriate active ingredient formulation, 10 mg of active ingredient are mixed with 0.5 ml of solvent and the concentrate is diluted with solvent to the desired concentration. The active ingredient solution is injected into the abdomen (Boophilus microplus), and the animals are transferred into dishes and stored in a climate-controlled room. After 7 days, the efficacy in % is determined. The activity is assessed by laying of fertile eggs. 100% means that none of the ticks has laid any fertile eggs.

Phaedon cochleariae = test: Phaedon test (PHAECO spray treatment); type: in vivo; conditions: Chinese cabbage leaf discs, after 7 days
How it was run: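 Larval mortality was assessed 7 days after Phaedon cochleariae larvae were placed on dried, spray-treated Brassica pekinensis leaf discs. The formulation was an acetone/dimethylformamide concentrate with alkylaryl polyglycol ether emulsifier, diluted in emulsifier-containing water. Results are given as % kill, from 0 (no larvae dead) to 100 (all dead).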

Lucilia cuprina larvae = test: Lucilia cuprina test (LUCICU); type: in vivo; conditions: application rate 100 ppm; treated horse meat; after 2 days
Experimental: as §1, with “Lucilia cuprina” for “Musca domestica”, “(LUCICU)” for “(MUSCDO)”, “horse meat” for “a sponge”, “about 20 Lucilia cuprina larvae.” for “adult Musca domestica.”, “determined.” for “determined”, “larvae” for “flies”

logP (HPLC-MS) = type: physicochemical; conditions: HPLC, reversed-phase column (C18), 43° C.
Spodoptera frugiperda = Spodoptera frugiperda test (SPODFR spray treatment); type: in vivo; conditions: maize leaf discs, after 7 days
How it was run: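 Mortality read-out at 7 days, given as % efficacy, where 100% means every caterpillar dead and 0% none. Caterpillars were placed on dried maize leaf discs that had been sprayed with test formulation. That formulation was an acetone/dimethylformamide concentrate diluted in emulsifier-containing water.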

Ctenocephalides felis = Ctenocephalides felis oral (CTECFE); type: in vivo; conditions: application rate 100 ppm in citrated cattle blood; after 2 days
Experimental: Ctenocephalides felis Oral ([…]) Solvent: 1 part by weight of dimethyl sulphoxide For the purpose of preparing an appropriate active ingredient formulation, 10 mg of active ingredient are mixed with 0.5 ml of dimethyl sulphoxide. A portion of the concentrate is diluted with citrated cattle blood, and the desired concentration is prepared. About 20 unfed adult fleas (Ctenocephalides felis) are placed into a chamber which is closed at the top and bottom with gauze. A metal cylinder whose bottom end is closed with Parafilm is placed onto the chamber. The cylinder contains the blood/active ingredient formulation, which can be imbibed by the fleas through the Parafilm membrane. After 2 days, the kill in % is determined 100% means that all of the fleas have been killed; 0% means that none of the fleas have been killed.

Tetranychus urticae = test: Tetranychus test, OP-resistant (TETRUR spray treatment); type: in vivo; conditions: bean leaf discs, after 6 days
How it was run: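 Bean leaf discs infested with all stages of OP-resistant T. urticae sprayed with compound formulated in acetone/DMF plus alkylaryl polyglycol ether emulsifier, diluted in water. Efficacy (% mites killed) scored after 6 days.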

[1] = acidic range pH 2.7, acetonitrile (0.1% formic acid)/water gradient, calibration with unbranched alkan-2-ones
[2] = acidic range pH 2.7, EEC directive 79/831 Annex V.A8, two values = both regioisomers (G = N)

SMILES	efficacy (kill in %) (adult Musca domestica) [%]	efficacy (laying of fertile eggs) (Boophilus microplus) [%]	efficacy in % (Phaedon cochleariae; application rate 100 g/ha) [%]	efficacy (kill in %) (Lucilia cuprina larvae) [%]	log p (logP (HPLC-MS); [1])	efficacy in % (Spodoptera frugiperda; application rate 100 g/ha) [%]	efficacy (kill in %) (Ctenocephalides felis) [%]	efficacy in % (Tetranychus urticae; application rate 100 g/ha) [%]	log p (logP (HPLC-MS); [2])	efficacy in % (Phaedon cochleariae; application rate 500 g/ha) [%]	efficacy in % (Spodoptera frugiperda; application rate 500 g/ha) [%]	efficacy in % (Tetranychus urticae; application rate 500 g/ha) [%]
CCn1c(C(=O)NC(c2cc(Cl)c(Cl)c(Cl)c2)C(F)(F)F)cc2cc(C(=O)NC3(C#N)CC3)c(Cl)cc21 (centres unmarked) [Compound 275]	100	100	100	100	4.43	100	100	100	–	–	–	–
CCn1c(C(=O)NC(c2cccc(C(F)(F)F)c2)C(F)(F)F)cc2cc(C(=O)NCC(C)(F)F)c(Cl)cc21 (centres unmarked) [Compound 10]	100	100	100	100	4.06	83	95	–	–	–	–	–
CCCn1c(C(=O)NC(c2cccc(C(F)(F)F)c2)C(F)(F)F)cc2cc(C(=O)NC3(C#N)CC3)c(Cl)cc21 (centres unmarked) [Compound 288]	100	100	100	100	–	100	100	100	4.03	–	–	–
CCn1c(C(=O)NC(c2ccc(F)c(Cl)c2)C(F)(F)F)cc2cc(C(=O)NC3(C#N)CC3)c(Cl)cc21 (centres unmarked) [Compound 20]	100	100	100	100	3.79	100	100	80	–	–	–	–
CCn1c(C(=O)NC(c2cc(Cl)cc(Cl)c2)C(F)(F)F)cc2cc(C(=O)NC3CC3)c(Cl)cc21 (centres unmarked) [Compound 13]	100	100	–	100	4.27	–	100	–	–	100	100	80
CCn1c(C(=O)NC(c2ccc(F)c(Br)c2)C(F)(F)F)cc2cc(C(=O)NC3(C#N)CC3)c(Cl)cc21 (centres unmarked) [Compound 42]	100	100	100	100	3.76	100	100	100	–	–	–	–
CCn1c(C(=O)NC(c2ccc(F)c(C(F)(F)F)c2)C(F)(F)F)cc2cc(C(=O)NC3(C#N)CC3)c(Cl)cc21 (centres unmarked) [Compound 16]	100	100	100	100	3.88	100	100	100	–	–	–	–
CCn1c(C(=O)NC(c2ccc(F)c(Br)c2)C(F)(F)F)cc2cc(C(=O)NC3CC3)c(C)cc21 (centres unmarked) [Compound 190]	100	100	100	100	3.70	100	100	100	–	–	–	–
CCn1c(C(=O)NC(c2ccc(F)c(C(F)(F)F)c2)C(F)(F)F)cc2cc(C(=O)NC3CC3)c(C)cc21 (centres unmarked) [Compound 188]	100	100	100	100	3.76	100	100	100	–	–	–	–
C=CCn1c(C(=O)NC(c2cccc(C(F)(F)F)c2)C(F)(F)F)cc2cc(C(=O)NC3(C#N)CC3)c(Cl)cc21 (centres unmarked) [Compound 283]	90	100	100	100	–	100	100	100	3.74	–	–	–
C#CCn1c(C(=O)NC(c2ccc(F)c(C(F)(F)F)c2)C(F)(F)F)cc2cc(C(=O)NC3(C#N)CC3)c(Cl)cc21 (centres unmarked) [Compound 61]	100	100	100	100	3.65	100	100	100	–	–	–	–
CCn1c(C(=O)NC(c2cccc(C(F)(F)F)c2)C(F)(F)F)cc2cc(C(=O)NC3(C)CC3)c(Cl)cc21 (centres unmarked) [Compound 22]	100	100	100	100	4.16	83	100	80	–	–	–	–
C#CCn1c(C(=O)NC(c2ccc(F)c(Br)c2)C(F)(F)F)cc2cc(C(=O)NC3(C#N)CC3)c(Cl)cc21 (centres unmarked) [Compound 62]	80	100	100	100	3.57	100	100	90	–	–	–	–
Cn1c(C(=O)NC(c2ccc(F)c(C(F)(F)F)c2)C(F)(F)F)cc2cc(C(=O)NC3(C#N)CC3)c(Cl)cc21 (centres unmarked) [Compound 50]	100	100	100	100	3.52	100	100	100	–	–	–	–
C#CCn1c(C(=O)NC(c2ccc(F)c(Cl)c2)C(F)(F)F)cc2cc(C(=O)NC3CC3)c(Cl)cc21 (centres unmarked) [Compound 63]	100	100	100	100	3.57	100	100	100	–	–	–	–
CCn1c(C(=O)NC(c2cc(Cl)cc(Cl)c2)C(F)(F)F)cc2cc(C(=O)NC3(C#N)CC3)c(C)cc21 (centres unmarked) [Compound 195]	100	100	100	100	4.09	100	100	100	–	–	–	–
CCn1c(C(=O)NC(c2cccc(C(F)(F)F)c2)C(F)(F)F)cc2cc(C(=O)NC(C)(C)C#N)c(Cl)cc21 (centres unmarked) [Compound 15]	100	100	100	100	3.89	100	100	–	–	–	–	–
